In publication PMC8521653 (ACS Medicinal Chemistry Letters, 2021):
Like-named read-outs stand apart in the source and are kept apart here. Marks after values point to notes of the source that are not given here.

How the values were obtained:
[1] = target: T1, purified recombinant porcine PREP (Sus scrofa, UniProt P23687); set-up: method as in Kilpeläinen et al.[16]; settings: 95% CI in brackets, ref Kilpeläinen et al.[16]; cited from earlier work
T1 construct: made in house; host or cells: E. coli

[2] = test system: PREP-catalyzed α-synuclein dimerization in N2A cells; settings: luminescence signal percentage of DMSO control with SEM, ref Kilpeläinen et al.[16]; cited from earlier work
[3] = test system: GFP-LC3B-RFP expressing HEK-293 cells; assay: Autophagic flux, GFP signal in GFP-LC3B-RFP expressing HEK-293 cells; format: cell-based; settings: for effect on autophagy (in words) / activity at 10 µM: 10 μM; for activity at 10 µM: Homo sapiens, HEK293, GFP signal percentage of DMSO control with SEM, HEK-293 cells, read-out: autophagy at 10 μM (%)
[4] = target: T1, purified recombinant porcine PREP; assay: Inhibition of the proteolytic activity of PREP, microplate assay with Suc-Gly-Pro-AMC substrate; format: biochemical; settings: for IC50: recombinant porcine PREP, Suc-Gly-Pro-AMC, 30 °C, pH 7.0, 95% CI in brackets
Method: Inhibition of the proteolytic activity (IC50) of PREP was determined using purified recombinant porcine PREP[25] as previously described.[16]
Measuring biological activity
Inhibitory Activity. The IC 50 values for compounds were determined in the microplate assay procedure described in Kilpeläinen et al.1 Porcine PREP cDNA was expressed in E.coli cells and purified as described in Venäläinen et al.3 The enzyme dilution was preincubated with 0.1 M sodium–potassium phosphate buffer (75 µL, pH 7.0) containing the compounds at desired concentrations in 30 °C for 30 min. The final concentration of the compounds in the assay mixture varied from 1 mM-1 nM and the final concentration of the enzyme was approximately 0.1 nM as measured by Bradford´s method. The enzyme reaction was carried out by adding 25 µL of 4 mM Suc-Gly-Pro-AMC substrate dissolved in 0.1 M sodium–potassium phosphate buffer (pH 7.0) into the assay mixture and incubating at 30° C for 60 min. The reaction was terminated by adding […] of 1 M sodium acetate buffer (pH 4.2). Formation of AMC was measured with Victor2 multilabel counter (PerkinElmer; excitation/emission 360 nm/ 460 nm), with a standard curve of 0.1-5 nM AMC in 0.1 M sodium–potassium phosphate buffer present. All activity measurements were made at least in triplicate. The inhibitory activities (percent of control) were plotted against the log concentration of the compound, and the IC50-value was determined by non-linear regression utilizing GraphPad Prism 7.0 software. […]

[5] = test system: PREP-catalyzed α-synuclein dimerization in N2A cells; assay: αSyn dimerization, protein fragment complementation assay (PCA) in N2A cells; format: cell-based; settings: 10 μM; for activity at 10 µM: Mus musculus, luminescence signal percentage of DMSO control with SEM, N2A cells; for decrease of aSyn dimerization compared to DMSO control: PCA, Figure S1A, % decrease
Method: The effect of the compounds on autophagy was determined by using GFP-LC3B-RFP expressing HEK-293 cells.[15],[34] The effect on αSyn dimerization was evaluated with a protein fragment complementation assay (PCA) by using N2A cells.[10],[15],[16] The increase in autophagic flux was measured as a decrease in GFP signal due to increased degradation of GFP-LC3B, and the decrease in αSyn dimerization was measured as a decrease in luminescence, both compared with DMSO (Table 1). […] Rapamycin and starvation are known to induce autophagy, lowering the fluorescence to 65–70% in our assays, and were therefore used as reference compounds for this. Test compounds were assayed at 10 μM concentration with 0.1% DMSO. A graphical representation of the mean values (± SEM) can be seen in the Supporting Information (Figure S1).
Measuring biological activity […]
α-Synuclein Dimerization. αSyn dimerization was assessed by using PCA, which was carried out as described previously in Kilpeläinen et al.1 In short, N2A cells were seeded on poly-L-lysine-coated 96-well plates (Isoplate™ white wall, PerkinElmer Life Sciences) at the density of 13 000 cells/well. 24 h post-plating, reporter plasmids were transfected with 100 ng of total plasmid DNA per well. N2A cells were transfected with 25 ng of both αSyn-Gluc1 and αSyn-Gluc2 and 50 ng mock-plasmid or non-tagged human PREP expression plasmid 50 ng/well. Lipofectamine 3000 (Thermo Fischer Scientific) was used as the transfection reagent. 100 µL normal growth medium was added to all wells at 24 h post-transfection. 48 hours post-transfection medium was changed to phenol red free DMEM without serum containing the tested compounds at 10 µM concentration, with 0,1% DMSO as vehicle control. Proteasome inhibitors lactacystin (AG Scientific) at 10 µM and MG-132 (Enzo Life Sciences) at 10 µM served as a positive control. The PCA signal was assessed by injecting 25 µL of native coelenterazine (Nanolight Technology) in phenol red free DMEM per well (final concentration 6 µM). The emitted luminescence was read using Varioskan LUX multimode microplate reader (Thermo Scientific). For each experimental condition, 4 replicate wells were used in each experiment, and at least 3 separate experiments for each treatment except for 15c which had 2 separate experiments. […]

[6] = test system: GFP-LC3B-RFP expressing HEK-293 cells; set-up: method as in Kilpeläinen et al.[15]; settings: GFP signal percentage of DMSO control with SEM, ref Kilpeläinen et al.[15]; cited from earlier work

T1 sequence (P23687 whole entry): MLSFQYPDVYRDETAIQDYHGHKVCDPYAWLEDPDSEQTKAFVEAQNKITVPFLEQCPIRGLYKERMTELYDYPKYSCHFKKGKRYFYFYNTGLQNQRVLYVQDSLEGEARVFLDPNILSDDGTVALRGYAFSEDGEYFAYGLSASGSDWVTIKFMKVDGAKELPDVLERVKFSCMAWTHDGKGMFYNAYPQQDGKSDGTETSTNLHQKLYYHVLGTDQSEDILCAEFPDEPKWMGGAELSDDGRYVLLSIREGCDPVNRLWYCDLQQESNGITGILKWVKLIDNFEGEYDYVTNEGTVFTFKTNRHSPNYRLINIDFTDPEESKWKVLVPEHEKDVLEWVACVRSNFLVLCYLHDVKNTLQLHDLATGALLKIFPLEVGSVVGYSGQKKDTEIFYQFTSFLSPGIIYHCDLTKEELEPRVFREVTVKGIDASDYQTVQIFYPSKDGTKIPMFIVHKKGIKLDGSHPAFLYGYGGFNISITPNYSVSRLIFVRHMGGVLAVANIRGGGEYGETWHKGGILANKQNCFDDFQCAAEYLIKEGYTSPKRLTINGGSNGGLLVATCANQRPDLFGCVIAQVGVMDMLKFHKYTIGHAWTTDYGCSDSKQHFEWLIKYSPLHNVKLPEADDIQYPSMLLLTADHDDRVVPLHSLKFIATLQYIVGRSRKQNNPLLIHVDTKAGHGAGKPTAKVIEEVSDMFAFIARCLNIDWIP

Row | Compound | α-synuclein dimerization at 10 μM (%) [2] | effect on autophagy (in words) [3] | activity at 10 µM ([3]; 24 h) [%] | also measured
1 | O=C(CCCc1ccccc1)NCC(=O)N1CCC[C@H]1c1nnn[nH]1 [Compound 1e] | 77 ^e (6.2) % | no significant activity | 90 | IC50 [1]: 210000 nM
2 | CN(CC(=O)N1CCC[C@H]1c1nnn[nH]1)C(=O)CCCc1ccccc1 [Compound 1c] | 75 ^e (7.7) % | some effect | 84 | 
3 | C[C@@H](C(=O)N1CCC[C@H]1c1nnn[nH]1)N(C)C(=O)CCCc1ccccc1 [Compound 1d] | 75 ^e (7.3) % | no significant activity | 93 | 
4 | O=C(CCc1ccccc1)N1CCC[C@H]1C(=O)N1CCC[C@H]1c1ncc[nH]1 [Compound 26a] |  |  | 102 | PREP activity at 1 nM inhibitor concentration compared to control ([4]; 1 nM inhibitor, remaining activity): 41%; IC50 [4]: < 1 nM; effect on αSyn dimerization (in words) [5]: still retaining some modulating activity; activity at 10 µM [5]: 89%
5 | O=C(CCCc1ccccc1)N1CCC[C@H]1C(=O)N1CCC[C@H]1c1nnn[nH]1 [Compound 1a] | 82 ^e (6.8) % | no significant activity | 92 | decrease of aSyn dimerization compared to DMSO control [5]: 23%
6 | N#C[C@@H]1CCCN1C(=O)[C@@H]1CCCN1C(=O)CCCc1ccccc1 [KYP-2047] |  |  |  | autophagy at 10 μM (%) [6]: 89 ^d (3.4) %
7 | C[C@H](NC(=O)CCc1ccccc1)C(=O)N1CCC[C@H]1c1nnn[nH]1 [Compound 15b] |  |  | 90 | IC50 [4]: 3900 nM; activity at 10 µM [5]: 98%
8 | C[C@H](NC(=O)CCCc1ccccc1)C(=O)N1CCC[C@H]1c1nnn[nH]1 [Compound 1b] | 75 ^e (4.9) % | effective at inducing autophagy | 71 | decrease in autophagic flux assay GFP signal compared to DMSO control ([3]; 10 µM, 24 h, Figure S1B, % decrease): 29%; decrease of aSyn dimerization compared to DMSO control [5]: 25%
